Results reported in patent US4342780A, “Method of depleting endogenous monoamines” (Merrell-Toraude et Cie, priority 1981, dated 1982).

Columns and labels:
[1] = target: T1, AADC (Sus scrofa, UniProt P80041); experiment: In vitro AADC inhibition: time of 90% inactivation (14CO2 trapping, DL-[1-14C]-dopa substrate); assay type: biochemical, hog; parameters: key to RATING: ++++: The relative activities of the compounds are rated by the given number of "plus" signs; +++: The relative activities of the compounds are rated by the given number of "plus" signs; 0-+: The relative activities of the compounds are rated by the given number of "plus" signs; conditions: for TIME OF 90% INACTIVATION: pH 7.4, 37° C.; for RATING: relative activity
T1 sequence (P80041 1-486): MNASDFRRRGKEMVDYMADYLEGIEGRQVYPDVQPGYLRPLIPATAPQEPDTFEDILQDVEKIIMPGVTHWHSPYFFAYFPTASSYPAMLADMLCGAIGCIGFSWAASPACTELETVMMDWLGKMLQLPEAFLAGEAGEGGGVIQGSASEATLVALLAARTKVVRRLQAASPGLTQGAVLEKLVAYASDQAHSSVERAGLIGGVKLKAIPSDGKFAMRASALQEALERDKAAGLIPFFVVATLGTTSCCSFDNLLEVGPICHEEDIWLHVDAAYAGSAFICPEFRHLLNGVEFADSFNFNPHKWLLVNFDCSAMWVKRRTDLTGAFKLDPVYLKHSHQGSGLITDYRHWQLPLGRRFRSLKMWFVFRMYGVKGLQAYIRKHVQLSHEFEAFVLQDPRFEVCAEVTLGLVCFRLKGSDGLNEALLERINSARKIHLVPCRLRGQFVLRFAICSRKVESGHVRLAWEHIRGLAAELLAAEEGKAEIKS
Procedure: AADC can be purified from hog kidney by the general method of J. Christenson et al. Archs. Biochem. Biophys., 141, 356 (1970) and G. Lancaster et al., Can. J. Biochem., 50, 791 (1972), and the specific activity of the enzyme is determined by the ^14 CO2 trapping method using DL-[1-^14 C]-dopa as the substrate (see Christenson et al.). One unit of activity is defined as the total amount of enzyme which produces 1 n mol of CO2 per minute, with DL-[1-^14 C]-dopa as substrate.
To 100 μl of 50 mM-phosphate buffer pH 7.4 containing 100 mM-mercapto-ethanol are added 5 μl of an aqueous solution containing the test compound at the desired concentration and 50 μl of an aqueous solution containing 2 units of AADC. The mixture is incubated at 37° C. and 20 μl aliquots are removed at various times. The AADC activity remaining in each aliquot is measured by the CO2 trapping method of Christenson.
The relative activities of the compounds are rated by the given number of "plus" signs.

[2] = test system: catecholamine content (norepinephrine, dopamine); experiment: Catecholamine content in organs of mice after repeated i.p. doses (Table II); assay type: in vivo, mice (Swiss Albino); conditions: three days, 12 h after 6th dose, vs control
Procedure: (§1) The test animals (e.g. mice or rats) are given the test compound in a suitable vehicle, either orally or by injection, each day over the period of time desired. The animals are kept on a constant time cycle, and body weights are measured daily. The animals are sacrificed by decapitation 12 to 24 hours after receiving the last dose of the test compound. Control animals receive the vehicle alone.
(§2) Immediately after death, the organs (brain, heart, and kidney) are removed and homogenized either in 50 ml phosphate buffer pH 6.8 for AADC determination or in ice-cold 0.4 M HClO4 containing 0.05% (w/v) EDTA and 0.1% (w/v) sodium bisulfite for catecholamine determination. AADC activity is determined by the ^14 CO2 trapping method of J. Christenson, supra (see Example 14) using DL-[1-^14 C]-dopa as the substrate. Catecholamines are determined by centrifuging the homogenate, adding the supernatant to alumina buffered to pH 8.0-8.4 to adsorb the catecholamines, re-extracting the catecholamines from the alumina with 0.2 M HClO4 and determining the catecholamines in the extracts using known procedures, such as by reversed-phase ion-pair HPLC with electrochemical detection.
(§3) Table II, shown below, sets forth the results obtained by testing particular compounds of Formula I in the above-described procedure in mice (Swiss Albino) after i.p. administration of the compound twice daily for three days: […]

[3] = test system: AADC; experiment: Ex vivo AADC activity in organs of mice after repeated i.p. doses (Table II); parameters: species or system mice (Swiss Albino); conditions: three days, 12 h after 6th dose, vs control
Procedure: as §1, §2, §3

[4] = test system: catecholamine levels (dopamine, noradrenaline); experiment: Effect of dopamine injection on catecholamine levels in heart and brain of mice treated with test compound (Table VI); assay type: in vivo, Male albino mice
Procedure: Saline solution is used as a control. The mice are sacrificed and the catecholamines, dopamine and noradrenaline, and serotonin (5-hydroxytryptamine) are determined by reverse-phase ion-pair high pressure liquid chromatography using electrochemical detection. […] Twelve hours after the second dose, one group of animals received an i.p. injection of 50 mg/kg of dopamine-HCl (Sigma, Chem. Co), the other group received saline instead. Three hours after the dopamine injection, the animals were killed and catecholamines were measured in heart and brain as described in Example 18.

[5] = test system: catecholamine content (norepinephrine, dopamine); experiment: Catecholamine content in organs of rats after oral administration once daily for 15 days (Table III); assay type: in vivo, rats (Sprague-Dawley); conditions: 24 h after 15th dose, vs control; for % CHANGE Brain Dopamine: * not significant
Procedure: as §1, §2
Table III gives the results obtained by testing particular compounds of Formula I in rats (Sprague-Dawley) after oral administration of the test compound once daily for 15 days. AADC activity was not determined.

[6] = test system: catecholamine levels (norepinephrine, dopamine) and serotonin (5-HT); experiment: Catecholamine and serotonin levels in organs of rats after daily doses for six days; assay type: in vivo
Procedure: as §1, §2
(§4) In the brain, doses of 10 mg/kg and 200 mg/kg produced a 10% reduction and a 70-80% reduction of AADC activity, respectively. […] In the heart, no reduction of norepinephrine is noted up to a dose of 200 mg/kg. When tested after multiple administration of 10, 25, or 50 mg/kg given daily for six days in rats sacrificed 24 hours after the sixth dose, the compound produced a 50% decrease in brain norephinephrine at a dose of 10 mg/kg (daily). […] Serotonin (5-HT) levels, as assessed by standard techniques, are not altered in the brain even at the highest dose tested. Heart norepinephrine is reduced by only 20% at the highest dose.

[7] = test system: AADC; experiment: AADC inhibition in organs of fasted rats after a single dose; assay type: in vivo; conditions: 16 h
Procedure: as §1, §2, §4

[8] = test system: endogenous catecholamine and 5-HT levels; experiment: Effect on endogenous catecholamine and 5-HT levels in brain and heart (general statement); assay type: in vivo
[9] = test system: catecholamine levels (norepinephrine, dopamine); experiment: Catecholamine levels in organs of fasted rats after a single dose; assay type: in vivo; conditions: 16 h
Procedure: as §1, §2, §4

[10] = 10 mg/kg i.p. twice daily, * not significant
[11] = 10 mg/kg i.p. twice daily, * not significant (-25*, -7*)
[12] = 10 mg/kg i.p. twice daily, * not significant (-25*, -9*)
[13] = 100 mg/kg i.p. twice daily, * not significant (-35*)
[14] = 10 mg/kg oral once daily 15 days
[15] = 20 mg/kg oral once daily 15 days
[16] = 30 mg/kg oral once daily 15 days

SMILES | % CHANGE NOREPINEPHRINE Brain [2, 10] | % CHANGE NOREPINEPHRINE Heart [2, 11] | % CHANGE DOPAMINE Brain [2, 12] | % CHANGE NOREPINEPHRINE Brain ([2]; 100 mg/kg i.p. twice daily) | % CHANGE NOREPINEPHRINE Heart ([2]; 100 mg/kg i.p. twice daily) | % CHANGE DOPAMINE Brain [2, 13] | % CHANGE AADC Brain ([3]; 10 mg/kg i.p. twice daily) | % CHANGE AADC Kidney ([3]; 10 mg/kg i.p. twice daily) | % CHANGE AADC Brain ([3]; 100 mg/kg i.p. twice daily) | % CHANGE AADC Kidney ([3]; 100 mg/kg i.p. twice daily) | % CHANGE Brain Norepinephrine [5, 14] | % CHANGE Heart Norepinephrine [5, 14] | % CHANGE Brain Dopamine [5, 14] | % CHANGE Brain Norepinephrine [5, 15] | % CHANGE Heart Norepinephrine [5, 15] | % CHANGE Brain Dopamine [5, 15] | % CHANGE Brain Norepinephrine [5, 16] | % CHANGE Heart Norepinephrine [5, 16] | % CHANGE Brain Dopamine [5, 16] | TIME OF 90% INACTIVATION ([1]; CONC. 10 μM) | other results
NC(CF)(Cc1cccc(O)c1)C(=O)O (centres unmarked) [Example 3-OH-phenyl, 2-Amino-2-fluoromethyl-3-(3-hydroxyphenyl)propionic acid] | -34% | 0% | 0% | -77% | -49% | -75% | -80% | -78% | -95% | -96% | – | – | – | – | – | – | – | – | – | – | TIME OF 90% INACTIVATION ([1]; CONC. 100 μM): 4 min; RATING ([1]; CONC. 100 μM): +++
NCCc1ccc(O)c(O)c1 [dopamine, reference compound] | – | – | – | – | – | – | – | – | – | – | – | – | – | – | – | – | – | – | – | – | depletion of noradrenaline in the heart achieved by the test-compound ([4]; effect of dopamine injection 50 mg/kg i.p.): reversed totally; depletion of amines in the central nervous system ([4]; effect of exogenous dopamine 50 mg/kg i.p.): not affected
NC(CF)(Cc1cc(O)ccc1O)C(=O)O (centres unmarked) [2,5-diOH-phenyl, 2-Amino-2-fluoromethyl-3-(2,5-dihydroxyphenyl)propionic acid] | 0% | -25% | 0% | -90% | -76% | 90% | -58% | -78% | -99% | -87% | -16% | -31% | -1% | -32% | -38% | -2% | -37% | -53% | -5% | 3 min | RATING ([1]; CONC. 10 μM): ++++
NC(CF)(Cc1cccc(O)c1O)C(=O)O (centres unmarked) [2,3-diOH-phenyl, 2-Amino-2-fluoromethyl-3-(2,3-dihydroxyphenyl)propionic acid] | -33% | -33% | -25% | -90% | -90% | -93% | -73% | -90% | -99% | -90% | -11% | -38% | 0% | -17% | -48% | +3% | -27% | -79% | -10% | 1 to 2 min | RATING ([1]; CONC. 10 μM): ++++
COC(=O)C(N)(CF)Cc1ccc(O)cc1 (centres unmarked) [Methyl 2-amino-2-fluoromethyl-3-(4-hydroxyphenyl)propionate] | – | – | – | – | – | – | – | – | – | – | – | – | – | – | – | – | – | – | – | – | decrease in brain norepinephrine ([6]; 10 mg/kg daily for six days, 24 h after sixth dose): 50%; Brain dopamine decrease ([6]; 50 mg/kg daily for six days, 24 h after sixth dose): 50%; decrease in brain norepinephrine, response at higher doses ([6]; 25 or 50 mg/kg daily for six days (above 10 mg/kg), 24 h after sixth dose): do not give an additional response; Brain dopamine, effect at lower doses ([6]; below 50 mg/kg (10, 25) daily for six days, 24 h after sixth dose): no significant effect; Serotonin (5-HT) levels in the brain ([6]; even at the highest dose tested, daily for six days): not altered; Heart norepinephrine reduction ([6]; highest dose (50 mg/kg) daily for six days, 24 h after sixth dose): 20%; reduction of AADC activity in the brain ([7]; 10 mg/kg single dose): 10%; AADC activity in kidney, liver, and adrenals ([7]; 50 mg/kg single dose): marked decrease; AADC inhibition in kidney, liver, and adrenals ([7]; 100 mg/kg single dose): Complete inhibition; reduction of AADC activity in the brain ([7]; 200 mg/kg single dose): 70-80%; AADC activity in the heart ([7]; up to 200 mg/kg single dose): not reduced significantly; endogenous 5-HT levels in the brain [8]: not altered; endogenous catecholamine levels in brain and heart [8]: lower engenous catecholamine levels in the brain but not in the heart; Brain norepinephrine decrease ([9]; 10 mg/kg single dose): 15-20%; dopamine decrease (brain) ([9]; 50 mg/kg single dose): decreased significantly; Brain norepinephrine decrease ([9]; 200 mg/kg single dose): 50%; dopamine decrease (brain) ([9]; 200 mg/kg single dose): 75%; reduction of norepinephrine in the heart ([9]; up to 200 mg/kg single dose): no reduction
